{
  "source": "patent US7132504B2",
  "about": "“Hepatitis C virus inhibitors” (Bristol-Myers Squibb Company, priority 2003, dated 2006)",
  "key": {"[1]": {"target": "BMS strain of the NS3/4A protease complex (UniProt P27958, C1454S/C1711G, species not given/STRAIN_BMS)", "assay": "Recombinant HCV NS3/4A protease complex FRET peptide assay, BMS strain", "type": "biochemical, HCV genotype 1a (BMS strain)", "text": "(§1) The purpose of this in vitro assay was to measure the inhibition of HCV NS3 protease complexes, derived from the BMS strain, H77 strain or J416S strain, as described below, by compounds of the present invention. This assay provides an indication of how effective compounds of the present invention would be in inhibiting HCV proteolytic activity.\n(§2) Serum from an HCV-infected patient was obtained from Dr. T. Wright, San Francisco Hospital. An engineered full-length cDNA (compliment deoxyribonucleic acid) template of the HCV genome (BMS strain) was constructed from DNA fragments obtained by reverse transcription-PCR (RT-PCR) of serum RNA (ribonucleic acid) and using primers selected on the basis of homology between other genotype 1a strains. From the determination of the entire genome sequence, a genotype 1a was assigned to the HCV isolate according to the classification of Simmonds et al. (See P Simmonds, K A Rose, S Graham, S W Chan, F McOmish, B C Dow, E A Follett, P L Yap and H Marsden, J. Clin. Microbiol., 31(6), 1493–1503 (1993)). […]"}, "[2]": {"target": "T1, NS3/4A protease complex, J4L6S strain (Hepatitis C virus genotype 1b, UniProt O92972, C1454S/C1711G)", "T1 construct": "DNA encoding the recombinant HCV NS3/4A protease complex (amino acids 1027 to 1711) for these strains; inferred from pET21b vector and Ni-NTA purification; made in house; host or cells: Escherichia coli BL21 (DE3), pET21b", "T1 sequence (O92972 1027-1711 C1454S/C1711G, one chain of several)": "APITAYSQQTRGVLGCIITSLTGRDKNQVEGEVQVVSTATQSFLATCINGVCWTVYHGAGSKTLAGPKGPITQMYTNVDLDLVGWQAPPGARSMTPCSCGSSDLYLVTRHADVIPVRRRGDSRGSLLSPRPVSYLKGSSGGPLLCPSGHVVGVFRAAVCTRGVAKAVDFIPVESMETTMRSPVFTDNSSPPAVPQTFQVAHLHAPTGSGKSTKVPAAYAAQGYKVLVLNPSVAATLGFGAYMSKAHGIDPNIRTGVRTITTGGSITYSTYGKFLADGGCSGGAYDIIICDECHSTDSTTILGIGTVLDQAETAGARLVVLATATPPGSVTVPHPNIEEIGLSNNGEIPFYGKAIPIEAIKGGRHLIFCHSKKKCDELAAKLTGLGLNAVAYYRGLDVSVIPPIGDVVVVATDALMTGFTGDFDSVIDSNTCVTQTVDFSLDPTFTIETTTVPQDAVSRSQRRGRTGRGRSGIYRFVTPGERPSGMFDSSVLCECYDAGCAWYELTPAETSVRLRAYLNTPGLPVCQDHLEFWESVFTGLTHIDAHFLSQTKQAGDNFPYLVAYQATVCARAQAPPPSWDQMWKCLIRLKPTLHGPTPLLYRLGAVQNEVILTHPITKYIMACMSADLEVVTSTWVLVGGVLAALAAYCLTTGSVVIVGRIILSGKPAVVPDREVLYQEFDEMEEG", "assay": "Recombinant HCV NS3/4A protease complex FRET peptide assay, J4L6S strain", "type": "biochemical, HCV genotype 1b (J4L6S)", "text": "as §1, §2"}, "[3]": {"target": "T2, porcine pancreatic elastase (PPE) (Sus scrofa, UniProt P00772)", "T2 construct": "purchased Sigma", "T2 sequence (P00772 27-266)": "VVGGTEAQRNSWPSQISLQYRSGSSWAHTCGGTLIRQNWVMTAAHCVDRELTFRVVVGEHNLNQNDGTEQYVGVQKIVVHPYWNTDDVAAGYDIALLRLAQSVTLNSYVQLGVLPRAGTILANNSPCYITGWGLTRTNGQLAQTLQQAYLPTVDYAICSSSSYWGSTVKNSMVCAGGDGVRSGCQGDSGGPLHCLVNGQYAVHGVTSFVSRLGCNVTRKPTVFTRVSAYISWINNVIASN", "assay": "Specificity assay, porcine pancreatic elastase", "type": "biochemical", "settings": "2 h enzyme-inhibitor pre-incubation", "method": "The specificities of compounds of the present invention were determined against a variety of serine proteases: human neutrophil elastase (HNE), porcine pancreatic elastase (PPE) and human pancreatic chymotrypsin and one cysteine protease: human liver cathepsin B. In all cases a 96-well plate format protocol using colorimetric p-nitroaniline (pNA) substrate specific for each enzyme was used as described previously (PCT Patent Application No. WO 00/09543) with some modifications to the serine protease assays. All enzymes were purchased from Sigma while the substrates were from Bachem.\nEach assay included a 2 h enzyme-inhibitor pre-incubation at room temperature followed by addition of substrate and hydrolysis to ˜30% conversion as measured on a Spectramax Pro microplate reader. Compound concentrations varied from 100 to 0.4 μM depending on their potency. […]\nThe percentage of inhibition was calculated using the formula: [1−((UVinh−UVblank)/(UVctl−UVblank))]×100 […]"}},
  "data": [
    {"compound": "C=CC1C[C@]1(NC(=O)[C@@H]1C[C@@H](Oc2cc(-c3ccccc3)nc3cc(OC)ccc23)CN1C(=O)[C@@H](NC(=O)OC)C(C)(C)C)C(=O)NS(=O)(=O)N(C)Cc1ccccc1", "note": "(stereo partly drawn) [Compound 9]", "values": [
      {"measurement": "IC50", "setting": "[1]", "value": 128, "unit": "nM"},
      {"measurement": "IC50", "setting": "[2]", "value": 41, "unit": "nM"},
      {"measurement": "IC50", "setting": "[3]", "value": "> 200000", "unit": "nM"}
    ]}
  ]
}
